Read-outs that look alike come from different tables or passages of the source.
Tests used:
HepG2 cells = test: MTT assay, antiproliferative activity, HepG2 liver carcinoma cells; format: cell-based; conditions: Homo sapiens, read-out: HepG2 IC50
Method: (§1) The anticancer activity of the OSe was performed using the MTT assay against liver (HepG2) and breast (MCF-7) carcinoma cells, as well as normal WI-38 cells following the reported method. Experimental details can be found in the Supplementary Materials Section S1.
Accordingly, the anticancer properties of the OSe hybrids were assessed against two cancer cell lines, i.e., HepG2 and MCF-7 cells. Furthermore, their corresponding cytotoxicity was also estimated against the immortalized lung WI-38 fibroblasts employing the MTT assay. The Adriamycin cancer drug was used as the positive control. The concentration inhibition, 50%, needed to kill half of the cells (IC50) was estimated from (concentration-response plots) and tabulated in Table 1.
(§2) 1.1. The biological assays
(§3) 1.1.1. The anticancer activity
(§4) The breast adenocarcinoma (MCF-7), Hepatocellular carcinoma (HEPG-2), and normal fibroblast (WI-38) cells were obtained from ATCC via Holding company for biological products and vaccines (VACSERA), Cairo, Egypt. The reagents […] medium, MTT, DMSO, and fetal bovine serum was obtained from Sigma Aldrich. Dulbecco’s modified Eagle’s medium was used as the culture medium for the cells, and the cytotoxicity was evaluated using the reported MTT assay. Doxorubicin was used as the positive reference, and the IC50 values were obtained from the corresponding dose-response curve.
(§5) This colorimetric assay is based on converting the yellow tetrazolium bromide (MTT) to a purple formazan derivative by mitochondrial succinate dehydrogenase in viable cells. Cell lines were cultured in […] medium with 10% fetal bovine serum. Antibiotics added were 100 units/ml penicillin and 100µg/ml streptomycin at 37 C in a 5% Co2 incubator. The cell lines were seeded in a 96-well plate at a density of 1.0x10^4 cells/well. at 37 C for 48 h under 5% […]
Finally, dimethyl sulfoxide (DMSO) in the volume of 100 µl is added to each well to dissolve the purple formazan formed. The colorimetric assay is measured and recorded at an absorbance of 570 nm using a plate reader (EXL 800, USA). […]

MCF-7 cells = test: MTT assay, antiproliferative activity, MCF-7 breast carcinoma cells; format: cell-based; conditions: Homo sapiens, MCF7, 24 h, read-out: MCF7 IC50
Method: as §1
(§6) Accordingly, the anticancer properties of the OSe hybrids were assessed against two cancer cell lines, i.e., HepG2 and MCF-7 cells. Furthermore, their corresponding cytotoxicity was also estimated against the immortalized lung WI-38 fibroblasts employing the MTT assay. The Adriamycin cancer drug was used as the positive control.
as §2, §3, §4, §5
(§7) Finally, dimethyl sulfoxide (DMSO) in the volume of 100 µl is added to each well to dissolve the purple formazan formed. […]

WI-38 cells = test: MTT assay, cytotoxicity against normal WI-38 fibroblasts; format: cell-based; conditions: Homo sapiens, WI-38, 24 h, read-out: WI38 IC50
Method: as §1, §6, §2, §3, §4, §5, §7

Escherichia coli [1] = test: Agar well diffusion assay, E. coli; format: cell-based; conditions: ratio of inhibition zone to that of positive control
Method: (§8) According to the reported method, the OSe agents’ antimicrobial properties were estimated against Staphylococcus aureus (S. aureus), Escherichia coli (E. coli), and Candida albicans (C. albicans) microbial strains using the agar well diffusion assay. In addition, the MICs (in […]) were also recorded via the microdilution method following the reported procedure. Experimental details can be found in the Supplementary Materials Section S1 [16, 18].
(§9) The promising anticancer activities manifested by the OSe compounds encourage us to further evaluate their respective antimicrobial activity against a panel of gram-negative bacteria (e.g., E. coli) and the gram-positive bacteria (e.g., S. aureus) as well as a fungal strain (C. albicans) using the method of agar diffusion. The clotrimazole antifungal and the ampicillin antibacterial drugs were used as the positive controls. […]
(§10) 1.1.2. The antimicrobial activity
(§11) The antimicrobial activities of the OSe compounds were evaluated against C. albicans yeast as well as E. coli gram-negative and S. aureus gram-positive bacteria employing the agar well diffusion assay [ 4 ] .
(§12) Briefly, a concentration of 1 mM was prepared for each compound by dissolving in DMSO.
(§13) Paper discs of standard size […] were sterilized in an autoclave and soaked in 9 µL of the test compounds, and placed in the Petri dishes, which in turn contain a nutrient media (agar 9 g, peptone 5 g, and beef extract 3 g) seeded with the dedicated strain. Incubation lasted for 13 h at 36 0C. Experiments were replicated three times and the antifungal clotrimazole and antibiotic ampicillin were used as standards. The % activity index for the complex was determined and depicted in table 2. […]

Staphylococcus aureus [2] = test: Agar well diffusion assay, S. aureus; format: cell-based; conditions: ratio of inhibition zone to that of positive control
Method: as §8, §9, §10, §11, §12, §13

Candida albicans [3] = test: Agar well diffusion assay, C. albicans; format: cell-based; conditions: ratio of inhibition zone to that of positive control
Method: as §8, §9, §10, §11, §12, §13

Escherichia coli [4] = test: Agar well diffusion assay, E. coli; format: cell-based; conditions: read-out: E. coli ZID
Staphylococcus aureus [5] = test: Agar well diffusion assay, S. aureus; format: cell-based; conditions: read-out: S. aureus ZID
Candida albicans [6] = test: Agar well diffusion assay, C. albicans; format: cell-based; conditions: read-out: C. Albicans ZID
[7] = DPPH radical scavenging bioassay; conditions: 200 µL, 1 mM in MeOH, DPPH 400 µL, 30 min, 517 nm
Excerpt: The DPPH and ABTS in vitro bioassays were used to assess the OSe antioxidant activities following the reported method. Experimental details can be found in the Supplementary Materials Section S1.
The redox modulation activities of the OSe compounds were extensively explored over the last decade owing to their chemopreventive and antioxidant potency. The latter is usually investigated by the ABTS and DPPH in vitro tests employing vitamin C as the positive control. The OSe compound’s magnitude estimated the antioxidant potential to decolorize the distinctive colors of the DPPH^. and ABTS^. radicals at 517 nm and 734 nm, respectively (Figure 2).
Figure 2 The OSe compounds redox activities assessment using the ABTS and DPPH experiments. All tests are mean ± SD. ABTS experiment: absorbance was followed at 734 nm for OSe compounds (50 µL, 1 mM in MeOH) and ABTS solution (60 µL). DPPH experiment: Absorbance was monitored after 30 min at 517 nm for OSe compounds (200 µL, 1 mM in MeOH) and DPPH (400 µL). […]
1.1.3. The antioxidant activity
1.1.3.1. The DPPH bioassay
The hydrogen atom or electron donation ability of the corresponding compounds was measured by estimating the bleaching of the purple color of a methanolic solution of DPPH [5]. This spectrophotometric assay uses stable DPPH. reagent. The sample was prepared by adding […] of the OSe compounds (1 mM in methanol) to […] DPPH in methanol. After 30 min of incubation in the dark, the absorbance was read against a blank at […]. Ascorbic acid (vitamin C) and ebselen were used as standard antioxidants (positive control). A blank sample was run without DPPH. A negative control sample was run using methanol instead of the sample. The radical scavenging activity was […]
using the following equation:
Inhibition%= (Ablank-Asample)/(Ablank)*100. […]

Structure (SMILES) | IC50 (HepG2 cells; MTT, HepG2 cells, 24 h incubation) [µM] | IC50 (MCF-7 cells) [µM] | IC50 (HepG2 cells; HepG2, 24 h) [µM] | IC50 (WI-38 cells) [µM] | E. coli IA% (activity index) (Escherichia coli [1]) [%] | S. aureus IA% (activity index) (Staphylococcus aureus [2]) [%] | C. Albicans IA% (activity index) (Candida albicans [3]) [%] | melting point [°C] | zone of inhibition at 20 µM (Escherichia coli [4]) [mm] | zone of inhibition at 20 µM (Staphylococcus aureus [5]) [mm] | zone of inhibition at 20 µM (Candida albicans [6]) [mm] | DPPH radical scavenging activity [7] [%]
COc1cccc2c1C(=O)c1c(O)c3c(c(O)c1C2=O)C[C@@](O)(C(=O)CO)C[C@@H]3O[C@H]1C[C@H](N)[C@H](O)[C@H](C)O1 [Adriamycin, reference compound] | 4.5 ± 0.2 | – | – | – | – | – | – | – | – | – | – | –
COC(=O)c1cc([Se][Se]c2ccc(NC(=O)COc3ccccc3)c(C(=O)OC)c2)ccc1NC(=O)COc1ccccc1 [Compound 10, dimethyl 5,5′-diselanediylbis(2-(2-phenoxyacetamido) benzoate)] | – | 53.5 ± 3 | 81.5 ± 4.2 | 38.2 ± 2.5 | 21.7 | 38.1 | 20.8 | 152 to 154 | 5 | 8 | 5 | –
COC(=O)c1cc([Se][Se]c2ccc(NC(C)=O)c(C(=O)OC)c2)ccc1NC(C)=O [Compound 8, dimethyl 5,5′-diselanediylbis(2-acetamidobenzoate)] | – | > 100 | > 100 | > 100 | – | – | – | 186 to 187 | – | – | – | –
COC(=O)c1cc([Se][Se]c2ccc(NC=O)c(C(=O)OC)c2)ccc1NC=O [Compound 7, dimethyl 5,5′-diselanediylbis(2-formamidobenzoate)] | – | 79 ± 4.2 | 83.7 ± 4.4 | 45.7 ± 2.7 | – | 14.3 | 16.7 | 195 to 196 | – | 3 | 4 | –
COC(=O)c1cc([Se]Cc2ccccc2)ccc1N [Compound 15, methyl 2-amino-5-(benzylselanyl) benzoate] | – | 12.8 ± 0.9 | 6.48 ± 0.4 | 25.8 ± 1.8 | 73.9 | 85.7 | 91.7 | 78 | 17 | 18 | 22 | 89
COC(=O)c1cc([Se][Se]c2ccc(NC(=O)CCC(=O)O)c(C(=O)OC)c2)ccc1NC(=O)CCC(=O)O [Compound 11] | – | 55.1 ± 3.2 | 43.7 ± 2.6 | > 100 | 21.7 | 33.3 | 41.7 | 150 to 152 | 5 | 7 | 10 | –
COC(=O)c1cc([Se]CC(=O)Nc2ccccc2)ccc1N [Compound 16, methyl 2-amino-5-((2-oxo-2-(phenylamino)ethyl)selanyl) benzoate] | – | 50.8 ± 2.9 | 30.6 ± 2.4 | 71.9 ± 4.1 | 26.1 | 42.8 | 54.2 | 126 to 128.5 | 6 | 9 | 13 | –
COC(=O)c1cc([Se][Se]c2ccc(NC(=O)/C=C\C(=O)O)c(C(=O)OC)c2)ccc1NC(=O)/C=C\C(=O)O [Compound 13, (2Z,2’Z)-4,4′-((diselanediylbis(2-(methoxycarbonyl)-4,1-phenylene))bis(azanediyl)) bis (4-oxobut-2-enoic acid)] | – | 76.2 ± 4 | 78.5 ± 3.9 | 47 ± 2.8 | – | 19.0 | 20.8 | 149.5 to 151 | – | 4 | 5 | –
COC(=O)c1cc([Se][Se]c2ccc(N3C(=O)CCC3=O)c(C(=O)OC)c2)ccc1N1C(=O)CCC1=O [Compound 12, dimethyl 5,5′-diselanediylbis(2-(2,5-dioxopyrrolidin-1-yl) benzoate] | – | > 100 | > 100 | > 100 | – | – | – | 100 | – | – | – | –
COC(=O)c1cc([Se][Se]c2ccc(NC(=O)CCl)c(C(=O)OC)c2)ccc1NC(=O)CCl [Compound 9, dimethyl 5,5′-diselanediylbis(2-(2-chloroacetamido) benzoate)] | – | > 100 | > 100 | > 100 | – | – | – | 150 to 152 | – | – | – | –

Reference: PMC9775310, “Anticancer, Antimicrobial, and Antioxidant Activities of Organodiselenide-Tethered Methyl Anthranilates” (Biomolecules, 2022)
